Drawing on US20150274664A1 (MERCK SHARP & DOHME CORP., priority 2012, published 2015), this text covers EC50 for 25 compounds.

By EC50 is commonly meant the midpoint of the concentration-response curve.

This assay concerns the target T1, human GPR119 (Homo sapiens, UniProt Q8TDV5).
T1 construct: expressed in transfected cells; host or cells: HEK293
T1 sequence (Q8TDV5 1-335): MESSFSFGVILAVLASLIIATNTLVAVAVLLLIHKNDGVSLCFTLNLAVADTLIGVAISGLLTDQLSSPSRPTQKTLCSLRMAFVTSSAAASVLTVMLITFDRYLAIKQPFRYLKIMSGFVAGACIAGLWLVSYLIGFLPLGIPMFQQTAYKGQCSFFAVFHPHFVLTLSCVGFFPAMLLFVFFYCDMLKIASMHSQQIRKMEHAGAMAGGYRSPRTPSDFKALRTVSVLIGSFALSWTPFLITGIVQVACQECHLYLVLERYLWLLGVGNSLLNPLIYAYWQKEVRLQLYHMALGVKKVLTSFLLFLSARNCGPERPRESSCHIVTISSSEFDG
Briefly: Measurement of GPR119 signaling using LANCE 384-well cAMP kit (LCMP assay). As to conditions: HEK293 cells stably transfected with human GPR119. The format is cell-based. Here is the method:
Measurement of GPR119 Signaling Using LANCE 384-Well cAMP Kit (LCMP Assay)
Human embryonic kidney (HEK) 293 cell lines stably transfected with human GPR119 were maintained in DMEM media containing FBS, penicillin-streptomycin, HEPES, and hygromycin. For the cAMP assay, the transfected cells were harvested using a non-enzymatic cell dissociation solution (GIBCO 2672), pelleted and resuspended in stimulation buffer (DMEM, 25 mM Hepes, 0.1% BSA, pH 7.4 in the presence of 100 μM phosphodiesterase inhibitors). The adenylate cyclase assay was constructed following the LANCE™ cAMP Kit (Perkin Elmer, AD0264) instructions. Briefly, cells with Alexa Fluor® 647-anti cAMP antibody were incubated with 10 point series diluted test article in stimulation buffer with a final concentration of 2.5% DMSO for 45 minutes. The reaction was stopped by incubating with the supplied detection buffer containing the europium chelate of the Eu-SA/Biotin-cAMP tracer for 3 hours. The assay was performed in duplicate in a 384 well plate for duplicate plates. Fluorescence at 665 nm was measured using a PHERAstar instrument. Basal activity was determined using a DMSO control and maximum response was defined as cAMP stimulation produced by an internal agonist control. Standard cAMP concentrations were assayed concurrently for conversion of fluorescence signal to cAMP level. The data was analyzed using 4-parameter curve fit in Microsoft Excel.
On the technique in general: TR-FRET usually uses a lanthanide donor and a delayed reading to cut background.
Turning to `CC(C)c1noc(N2CCC([C@H]3C[C@@H]3CCOc3cc(F)c(CC(=O)N4CCC4)c(F)c3)CC2)n1` [Example 79, 1-(azetidin-1-yl)-2-(2,6-difluoro-4-(2-((1R,2R)-2-(1-(3-isopropyl-1,2,4-oxadiazol-5-yl)piperidin-4-yl)cyclopropyl)ethoxy)phenyl)ethanone], the midpoint of the response, the EC50, lay at 0.55 nM.
On to `CC(C)c1noc(N2CCC([C@@H]3C[C@H]3CCOc3cc(F)c(CC(=O)N(C)C)c(F)c3)CC2)n1` [Example 77, 2-(2,6-difluoro-4-(2-((1S,2S)-2-(1-(3-isopropyl-1,2,4-oxadiazol-5-yl)piperidin-4-yl)cyclopropyl)ethoxy)phenyl)-N,N-dimethylacetamide], for which a half-maximal response (EC50) required 0.79 nM.
As to `CC(C)c1noc(N2CCC([C@@H]3C[C@H]3CCOc3cc(F)c(CC(=O)N4CCC4)c(F)c3)CC2)n1` [Example 82, 1-(azetidin-1-yl)-2-(2,6-difluoro-4-(2-((1S,2S)-2-(1-(3-isopropyl-1,2,4-oxadiazol-5-yl)piperidin-4-yl)cyclopropyl)ethoxy)phenyl)ethanone], a half-maximal effect (EC50) was put at 0.51 nM.
As to `CC(C)c1noc(N2CCC([C@H]3C[C@@H]3CCOc3ccc(CC(=O)N4CCC4)cc3F)CC2)n1` [Example 74, 1-(azetidin-1-yl)-2-(3-fluoro-4-(2-((1R,2R)-2-(1-(3-isopropyl-1,2,4-oxadiazol-5-yl)piperidin-4-yl)cyclopropyl)ethoxy)phenyl)ethanone], the EC50 is 9.5 nM.
Compound `CCc1cnc(N2CCC([C@H]3C[C@@H]3COCc3ccc(S(C)(=O)=O)cc3F)CC2)nc1` [Example 8, 5-ethyl-2-(4-((1R,2S)-2-(((2-fluoro-4-(methylsulfonyl)benzyl)oxy)methyl)cyclopropyl)piperidin-1-yl)pyrimidine] came in with an EC50 of 1.3 nM.
`CCc1cnc(N2CCC([C@H]3C[C@@H]3CCOc3ccc(CC(=O)N4CCC4)cn3)CC2)nc1` [Example 115, 1-(azetidin-1-yl)-2-(6-(2-((1R,2R)-2-(1-(5-ethylpyrimidin-2-yl)piperidin-4-yl)cyclopropyl)ethoxy)pyridin-3-yl)ethanone] came in with an EC50 of 10 nM. Compared with the last compound, the EC50 is about 7.7-fold higher.
Consider `Fc1cc(OCC[C@@H]2C[C@H]2C2CCN(c3ncc(Cl)cn3)CC2)ccc1-n1cnnn1` [Example 59, 5-chloro-2-(4-((1S,2S)-2-(2-(3-fluoro-4-(1H-tetrazol-1-yl)phenoxy)ethyl)cyclopropyl)piperidin-1-yl)pyrimidine], for which the EC50 worked out at 13 nM.
The compound `CC1(OC(=O)N2CCC([C@@H]3C[C@H]3CCOc3ccc(-n4cnnn4)cc3F)CC2)CC1` [Example 96, 1-methylcyclopropyl 4-((1S,2S)-2-(2-(2-fluoro-4-(1H-tetrazol-1-yl)phenoxy)ethyl)cyclopropyl)piperidine-1-carboxylate] returned a concentration giving a half-maximal response (EC50) of 8.2 nM.
As for `CCc1cnc(N2CCC([C@@H]3C[C@H]3CCOc3ccc(CC(=O)N4CCC4)cc3F)CC2)nc1` [Example 62, 1-(azetidin-1-yl)-2-(4-(2-((1S,2S)-2-(1-(5-ethylpyrimidin-2-yl)piperidin-4-yl)cyclopropyl)ethoxy)-3-fluorophenyl)ethanone], the figure is 11 nM; as for `CC(C)c1noc(N2CCC([C@@H]3C[C@H]3CCOc3ccc(CC(=O)N4CCC4)cc3F)CC2)n1` [Example 70, 1-(azetidin-1-yl)-2-(3-fluoro-4-(2-((1S,2S)-2-(1-(3-isopropyl-1,2,4-oxadiazol-5-yl)piperidin-4-yl)cyclopropyl)ethoxy)phenyl)ethanone], 6.8 nM; as for `CC1(OC(=O)N2CCC([C@H]3C[C@@H]3CCOc3ccc(CC(=O)N4CCC4)c(F)c3)CC2)CC1` [Example 95, 1-methylcyclopropyl 4-((1R,2R)-2-(2-(4-(2-(azetidin-1-yl)-2-oxoethyl)-3-fluorophenoxy)ethyl)cyclopropyl)piperidine-1-carboxylate], 2.6 nM.
Compound `COCc1cnc(N2CCC([C@H]3C[C@@H]3CCOc3ccc(CC(=O)N4CCC4)c(F)c3)CC2)nc1` [Example 51, 1-(azetidin-1-yl)-2-(2-fluoro-4-(2-((1R,2R)-2-(1-(5-(methoxymethyl)pyrimidin-2-yl)piperidin-4-yl)cyclopropyl)ethoxy)phenyl)ethanone] had an EC50 of 3.4 nM.
`COCc1cnc(N2CCC([C@H]3C[C@@H]3COCc3ccc(S(C)(=O)=O)cc3)CC2)nc1` [Example 12, 5-(methoxymethyl)-2-(4-((1R,2S)-2-(((4-(methylsulfonyl)benzyl)oxy)methyl)cyclopropyl)piperidin-1-yl)pyrimidine] returned an EC50 of 14 nM.
Take `CCc1cnc(N2CCC([C@H]3C[C@@H]3CCOc3cc(F)cc(F)c3CC(=O)N(C)C)CC2)nc1` [Example 117, 2-(2-(2-((1R,2R)-2-(1-(5-ethylpyrimidin-2-yl)piperidin-4-yl)cyclopropyl)ethoxy)-4,6-difluorophenyl)-N,N-dimethylacetamide]: the EC50 came out at 12 nM.
Then `COCc1noc(N2CCC([C@H]3C[C@@H]3CCOc3cc(F)c(CC(=O)N4CCC4)c(F)c3)CC2)n1` [Example 80, 1-(azetidin-1-yl)-2-(2,6-difluoro-4-(2-((1R,2R)-2-(1-(3-(methoxymethyl)-1,2,4-oxadiazol-5-yl)piperidin-4-yl)cyclopropyl)ethoxy)phenyl)ethanone], with 2.4 nM.
Then `CC(C)c1noc(N2CCC([C@H]3C[C@@H]3CCOc3ccc(S(C)(=O)=O)c(F)c3)CC2)n1` [Example 87, 5-(4-((1R,2R)-2-(2-(3-fluoro-4-(methylsulfonyl)phenoxy)ethyl)cyclopropyl)piperidin-1-yl)-3-isopropyl-1,2,4-oxadiazole], with 11 nM; and `O=C(Cc1ccc(OCC[C@@H]2C[C@H]2C2CCN(c3ncc(Cl)cn3)CC2)cc1F)N1CCC1` [Example 42, 1-(azetidin-1-yl)-2-(4-(2-((1S,2S)-2-(1-(5-chloropyrimidin-2-yl)piperidin-4-yl)cyclopropyl)ethoxy)-2-fluorophenyl)ethanone], with 1.8 nM.
Compound `CC(C)c1noc(N2CCC([C@H]3C[C@@H]3CCOc3ccc(-n4cnnn4)c(F)c3)CC2)n1` [Example 86, 5-(4-((1R,2R)-2-(2-(3-fluoro-4-(1H-tetrazol-1-yl)phenoxy)ethyl)cyclopropyl)piperidin-1-yl)-3-isopropyl-1,2,4-oxadiazole] had an EC50 of 13 nM. This EC50 lies about 7.2-fold higher than the previous one.
Then `CCS(=O)(=O)c1ccc(OCC[C@@H]2C[C@H]2C2CCN(c3nc(C(C)C)no3)CC2)c(F)c1` [Example 71, 5-(4-((1S,2S)-2-(2-(4-(ethylsulfonyl)-2-fluorophenoxy)ethyl)cyclopropyl)piperidin-1-yl)-3-isopropyl-1,2,4-oxadiazole], with 3.8 nM; and `CCc1cnc(N2CCC([C@H]3C[C@@H]3CCOc3ccc(S(C)(=O)=O)c(F)c3)CC2)nc1` [Example 27, 5-ethyl-2-(4-((1R,2R)-2-(2-(3-fluoro-4-(methylsulfonyl)phenoxy)ethyl)cyclopropyl)piperidin-1-yl)pyrimidine], with 5.5 nM.
Regarding `CC1(OC(=O)N2CCC([C@@H]3C[C@H]3CCOc3ccc(CC(=O)N4CCC4)c(F)c3)CC2)CC1` [Example 97, 1-methylcyclopropyl 4-((1S,2S)-2-(2-(4-(2-(azetidin-1-yl)-2-oxoethyl)-3-fluorophenoxy)ethyl)cyclopropyl)piperidine-1-carboxylate], the EC50 turned out to be 4.2 nM.
Turning to `O=C1NCCN1c1ccc(OCC[C@H]2C[C@@H]2C2CCN(c3ncc(Cl)cn3)CC2)cc1F` [Example 61, 1-(4-(2-((1R,2R)-2-(1-(5-chloropyrimidin-2-yl)piperidin-4-yl)cyclopropyl)ethoxy)-2-fluorophenyl)imidazolidin-2-one], it took 17 nM to reach a half-maximal effect (EC50).
`COCc1noc(N2CCC([C@@H]3C[C@H]3CCOc3cc(F)c(CC(=O)N4CCC4)c(F)c3)CC2)n1` [Example 83, 1-(azetidin-1-yl)-2-(2,6-difluoro-4-(2-((1S,2S)-2-(1-(3-(methoxymethyl)-1,2,4-oxadiazol-5-yl)piperidin-4-yl)cyclopropyl)ethoxy)phenyl)ethanone]: the EC50 turned out to be 5.2 nM.
In turn, `COCc1noc(N2CCC([C@@H]3C[C@H]3CCOc3ccc(-n4cnnn4)cc3F)CC2)n1` [Example 89, 5-(4-((1S,2S)-2-(2-(2-fluoro-4-(1H-tetrazol-1-yl)phenoxy)ethyl)cyclopropyl)piperidin-1-yl)-3-(methoxymethyl)-1,2,4-oxadiazole] came in with an EC50 of 23 nM.
`CC1(OC(=O)N2CCC([C@H]3C[C@@H]3CCOc3ccc(-n4cnnn4)cc3F)CC2)CC1` [Example 107, 1-methylcyclopropyl 4-((1R,2R)-2-(2-(2-fluoro-4-(1H-tetrazol-1-yl)phenoxy)ethyl)cyclopropyl)piperidine-1-carboxylate] came in with an EC50 of 17 nM.
